The text below walks through data of US7419657B2, “Treatment of atherosclerotic disorders” (priority 2001, dated 2008).

The test system of data set [1] is anti-Chlamydia abzymes. Nature of the data set: Serum abzyme activity in stable angina patients treated with azithromycin with or without aspirin (Example 8). It counts as in vivo, human. As to conditions: azithromycin 500 mg once per day.
Data set [2] has as its system anti-Chlamydia abzymes. Nature of the data set: Anti-abzyme therapy trial in ischaemic heart disease: serum abzyme activity. In kind it is in vivo, human.
The nature of data set [3]: Anti-abzyme therapy trial: modified Rose-Blackburn Questionnaire. In kind it is in vivo, human. Further details: Score by modified Rose-Blackburn Questionnaire, 60 days after start of the treatment / Rose Blackthorn Score Day 60: scale not given here. The text has this: The progression of the clinical condition of the patients was monitored by the use of the modified Bruce Protocol for treadmill exercise/stress ECG testing and on the Rose-Blackburn Questionnaire (Cardiovascular Survey Methods. WHO, Geneva, 1968).

For data set [4], the system named is anti-Chlamydia IgG. Particulars: best of previously undertaken trials with azithromycin; cited from earlier work.
Data set [5] deals with anti-Chlamydia abzymes. In kind it is biochemical, human. Further details: key to In-vitro Inhibition: + = inhibition; − = no inhibition.
The subject of data set [6] is anti-Chlamydia IgG. As to the kind of experiment: Anti-abzyme therapy trial: anti-Chlamydia IgG. It counts as in vivo, human.
Data set [7] concerns human plasma. As to the kind of experiment: In vitro kaolin clotting of plasma with atheroma IgG abzymes. Particulars: pH 6.2.
Setting [8] is: group mean, before treatment 45.9.
The mark [9] stands for this setting: individual stable angina patients.
Where [10] appears, read: Therapy Group A individual IHD patients, azithromycin 500 mg daily.
The mark [11] stands for this setting: Therapy Group A mean, before treatment 47.5.
[12] abbreviates: individual IHD patients negative for anti-Chlamydia IgG.

Several values for one entry are separate records, joined by “and”; a condition that tells them apart may be missing. Equal values may be shown once. Read-outs that look alike come from different tables or passages of the source. Marks after values point to notes of the source that are not given here.

Take `CC[C@H]1OC(=O)[C@H](C)[C@@H](O[C@H]2C[C@@](C)(OC)[C@@H](O)[C@H](C)O2)[C@H](C)[C@@H](O[C@@H]2O[C@H](C)C[C@H](N(C)C)[C@H]2O)[C@](C)(O)C[C@@H](C)CN(C)[C@H](C)[C@@H](O)[C@]1(C)O` [Azithromycin]: the “Anti-Chlamydia abzyme activity, 15 days after the start of the treatment” value in data set [1] (setting [8]) is 19.6 μM MDA/ml; in data set [1] (setting [9]) it was 60 μM MDA/ml and 0 μM MDA/ml (3×) and 8.3 μM MDA/ml and 6.7 μM MDA/ml (3×) and 33 μM MDA/ml and 75 μM MDA/ml. Further, the “Anti-Chlamydia abzyme activity, 30 days after the start of the treatment” value in data set [1] (setting [8]) was 17.7 μM MDA/ml; in data set [1] (setting [9]), 37 μM MDA/ml and 0 μM MDA/ml (3×) and 28 μM MDA/ml and 3.3 μM MDA/ml (2×) and 10 μM MDA/ml and 78 μM MDA/ml. Further, the “Anti-Chlamydia abzyme activity, 15 days after the start of treatment” value is 6.7 μM MDA/ml (3×) and 0 μM MDA/ml (3×) and 60* μM MDA/ml and 8.3 μM MDA/ml and 33 μM MDA/ml and 75* μM MDA/ml and 52* μM MDA/ml in data set [2] (setting [10]); 22.5 μM MDA/ml in data set [2] (setting [11]). For the same compound, the “Anti-Chlamydia abzyme activity, 30 days after the start of treatment” value in data set [2] (setting [10]) was 78** μM MDA/ml and 0 μM MDA/ml (3×) and 37* μM MDA/ml and 28** μM MDA/ml and 3.3 μM MDA/ml (2×) and 10 μM MDA/ml (2×) and 78* μM MDA/ml; in data set [2] (setting [11]), 22.5 μM MDA/ml. In addition, the “Anti-Chlamydia abzyme activity, 45 days after the start of treatment” value in data set [2] (setting [10]) was 17 μM MDA/ml and 0 μM MDA/ml (5×) and 20* μM MDA/ml and 43* μM MDA/ml and 3.3 μM MDA/ml (2×) and 5.0 μM MDA/ml; in data set [2] (setting [11]) it was 7.4 μM MDA/ml. Moreover, the “Anti-Chlamydia abzyme activity, 60 days after the start of treatment” value in data set [2] (setting [10]) was 3.3 μM MDA/ml and 6.7 μM MDA/ml (2×) and 0 μM MDA/ml (7×) and 0.5 μM MDA/ml; in data set [2] (setting [11]) it was 1.6 μM MDA/ml. The “patients with no changes in the abzyme activity after 15 days” value in data set [2] (Therapy Group A, 3 out of 11) was 27%. In data set [2] (setting [12]), the “Abzyme activity Day 60” value was 6.7 (2×) and 3.3 and 0. Moreover, the “Anti-Chlamydia abzymes activity, 60 days after treatment” value in data set [2] (summary, group mean, PCG 55.3 ± 6.18, Norm 6.36 ± 1.14) amounted to 1.6 ± 0.89 μM/MDA/ml. Further, the adverse reactions result (human, in vivo) is on record as “No adverse reactions”. Moreover, the “tablets of nitroglycerine daily after 15 days of treatment” value (patient 5, before treatment 10 tablets daily) is recorded as 5 tablets of nitroglycerine. The “Score by modified Rose-Blackburn Questionnaire, 60 days after start of the treatment” value in data set [3] (group mean) is 14.4 ± 1.14; in data set [3] (individual patients), 13 and 16 and 18 and 15 (2×) and 8 and 11 and 17 (2×) and 19 and 10. For the same compound, in data set [3] (setting [12]), the “Rose Blackthorn Score Day 60” value is 18 and 19 and 10 and 13. In addition, in data set [3] (summary, group mean, PCG 21.5 ± 1.19), the “Clinical Status modified Rose G., Blackburn H Questionnaire, 60 days after treatment” value was determined as 14.4 ± 1.14. In addition, the “treated patients with a reduction of titers of anti-Chlamydia antibodies” value in data set [4] was 43%. Further, the “Lipid oxidising activity of anti-Chlamydia abzymes” value in data set [5] (in DMSO, 1 μM, control 61) is 7 μM MDA/ml; in data set [5] (in DMSO, 5 μM, control 61), 0 μM MDA/ml; in data set [5] (suspension in water, 1 μM, control 61), 19 μM MDA/ml; in data set [5] (suspension in water, 2 μM, control 61), 0 μM MDA/ml; in data set [5] (suspension in water, 10 μM, control 61), 0 μM MDA/ml; in data set [5] (suspension in water, 20 μM, control 61), 0 μM MDA/ml. In data set [6] (summary, group value, before treatment 43.6, 48.5, 52.0 (A, C, B), immuno-fluorescent assay), the “Anti-Chlamydia IgG, 60 days after treatment” value is recorded as 0 (titers)^−1. Also, in data set [6] (therapy trial), the “presence of anti-Chlamydia IgG after the intensive regimen” value was “totally eliminated”.
`[N-]=[N+]=[N-].[Na+]` [NaN1, sodium azide]: the “abzyme effect on the plasma clotting after pre-incubation of the abzymes with inhibitor” value in data set [7] is “reduction”. Besides, in data set [5], the “In-vitro Inhibition” value is “+”, the “Lipid oxidising activity of anti-Chlamydia abzymes” value stood at 0 μM MDA/ml and the “Result (inhibition of anti-Chlamydia abzymes)” value is reported as “Positive”.
